This is an account of results in patent publication US11892435B2, “NMR methods for measuring pH in oral care, home care and personal care products” (Colgate-Palmolive Company, priority 2018, dated 2024).

A short description of this data set: 13C NMR pH titration of sodium lactate/lactic acid solutions, nonlinear least squares fit of Equation 5. It counts as physicochemical. The settings on record: carboxyl group of lactic acid, about 1 weight % sodium lactate and lactic acid, pH about 2 to about 5.5, fit of 13C chemical shift vs pH.

Protocol: In at least one implementation, the chemical species or molecular or molecular entity may be or include a carboxyl group, such as the carboxyl group of a lactic acid, where the observed C-13 chemical shift can be expressed according to equation (5): pH=pKa+log [(δC−δCO2H)/(δCO2^−−δC)] (5)
A calibration curve was prepared for measuring lactic acid with an NMR by using standardized buffered solutions of sodium lactate and lactic acid at different mole ratios in water at varying pH. The solutions included a total concentration of sodium lactate and lactic acid at about 1 weight %, and the pH was varied from a pH of about 2 to about 5.5. NMR was performed on the samples to obtain C-13 chemical shift values. A pH electrode was utilized to measure the pH of each of the standardized samples, and the calibration curve was prepared by correlating the measured C-13 chemical shift to the pH values measured by the pH electrode, as illustrated in FIG. 4. As such, the observed ^13C chemical shift of the carbonyl group (δC) was expressed as the weighted average of the ^13C chemical shift between CO2H (δCO2H) and CO2^−(δCO2^−). The pH of the carboxyl group was described in terms of pKa of the carboxyl group, as represented by Equation 5. pH=pKa+log [(δC−δCO2H)/(δCO2^−−δC)] (5)
The nonlinear least squares fit was applied to determine the values of the pKa, the δCO2^−, and the δCO2H.

For orientation: pKa means the negative logarithm of the acid dissociation constant. Consider `CC(O)C(=O)O` (stereo not shown) [lactic acid], for which the pKa amounted to 3.73.
